For 37 molecules, GI50 and TGI results are on record in PubChem BioAssay (NCI).

The assay has as its system MDA-MB-468 breast. Nature of the assay: growth of human tumour cells (NCI), 48 h.

Where “and” joins values, the source holds several entries; their conditions need not be identical. Equal entries are not always repeated.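 Each compound was tested at five concentrations against cells in 96-well plates for 48 hours. GI50 is the concentration that inhibits growth by half. TGI denotes the concentration required for complete inhibition of growth.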

Consider `CCN(Cc1ccccc1C)c1ccc(CO)c(Cl)c1`, for which the GI50 is 38.8 nM and the TGI was determined as 0.288 µM.

As for `CCn1c(=O)c2c(=O)c3c4c(oc3oc2c2ccccc21)C(=O)c1ccccc1C4=O`, the GI50 was 199 nM and the TGI amounted to 0.701 µM.

For the molecule `O=C(NNc1nc2cc(F)c(F)cc2n2c(CN3CC4CNCC4C3)ccc12)c1cnccn1` (centres undefined), the GI50 is 1340 nM and the TGI came out at 6.54 µM.

For the molecule `Cc1cc(C)c(NC(=O)c2sc3nc4c(cc3c2N)CN(Cc2ccccc2)CC4)c(C)c1`, the GI50 is 1780 nM and the TGI was 88.7 µM.

As for `C#COc1cccc(Nc2c(C#N)cnc3ncc(NC(=O)CCl)cc23)c1`, the GI50 is 12700 nM and the TGI amounted to 60.3 µM.

With `CN(CCO)c1ccc(N2Cc3ccccc3OC3=C2C(=O)c2c(O)ccc(O)c2C3=O)cn1`, the GI50 was 257 nM and the TGI was 0.659 µM.

Regarding `COC(=O)[C@@H](C)C[C@H](Cc1ccccc1)NC(=O)c1csc([C@@H](C[C@H](C(C)C)N(C)C(=O)[C@@H](NC(=O)[C@H]2CCCCN2C)C2CCCCC2)OC(C)=O)n1`, the GI50 was 0.311 nM and 2.5 nM; the TGI is over 25 µM.

For the molecule `COc1ccc(-n2c(C)cc(-c3ccccc3)c2C)cc1`, the GI50 is 1310 nM and the TGI worked out at 3.47 µM.

Turning to `Cn1cc(C2=C(c3cccc(Br)c3)C(=O)NC2=O)c2ccccc21`, the GI50 is 6700 nM and the TGI is over 25 µM.

Take `Cc1cc(C)c(/C=C2\C(=O)Nc3ccc(NC(=O)CCCCCCC(=O)NO)cc32)[nH]1`: the GI50 is 367 nM and the TGI is 22.6 µM.

With `CCOC(=O)c1c(NC(=O)c2cccc(C(F)(F)F)c2)sc2c(CN(C)C)c(O)ccc12`, the GI50 is 1720 nM and the TGI was 3.8 µM.

Take `COc1ccc(-c2ccc(-c3ccc(C(=N)N)s3)s2)cc1`: the GI50 is 187 nM and the TGI is 0.379 µM.

On to `CC(=O)Oc1ccccc1C(=O)Nc1ncc([N+](=O)[O-])s1`, for which the GI50 is 1930 nM and the TGI is 7.64 µM.

`OCCCNc1nccc(-c2c(-c3ccc(F)cc3)nn3cc(C(F)(F)F)ccc23)n1`: the GI50 is 6720 nM and the TGI was over 20.3 µM.

As for `CCN1C(=O)N(CC)C2C1NN=c1s/c(=C3\C(=O)N(CC(C)(C)C)c4ccccc43)c(=O)n12` (centres undefined), the GI50 is 3850 nM and the TGI is 18.8 µM.

In the case of `O[C@H](c1cc(C(F)(F)F)nc2c(C(F)(F)F)cccc12)[C@@H]1CCCCN1`, the GI50 was 1720 nM and the TGI amounted to 4.19 µM.

Consider `C1=C\COCc2cc(ccc2OCCN2CCCC2)Nc2nccc(n2)-c2cccc(c2)COC/1`, for which the GI50 was 1320 nM and the TGI came to 3.79 µM.

Consider `COc1ccc(O)c(C(=O)c2ccc(C(=O)N[C@H]3CCCNC[C@@H]3NC(=O)c3ccncc3)cc2)c1F`, for which the GI50 is 552 nM and the TGI was over 25 µM.

With `CCOC(=O)/C=C(/C)Sc1cc(O)c2ccccc2c1O`, the GI50 is 3550 nM and the TGI is 12.1 µM.

Take `O=C1NC(=O)C(c2cccc([N+](=O)[O-])c2)=C1Nc1cc(Cl)c(O)c(Cl)c1`: the GI50 is 12300 nM and the TGI is over 25 µM.

Consider `O=S(=O)(Nc1ccc(F)cc1F)c1ccc(-c2cnc(C3CC3)o2)cc1`, for which the GI50 was 390 nM and the TGI came out at 7.86 µM.

As to `CCCCCOc1ccc(/C=N/Nc2cc(C)nc3ccc(Br)cc23)cc1`, the GI50 is 1830 nM and the TGI was 3.57 µM.

With `C=C1C(=O)O[C@H]2[C@H]1CC/C(COC(=O)/C=C\C(=O)NCc1ccc(Cn3c(=O)sn(CCCC)c3=O)cc1)=C\CC[C@@]1(C)O[C@@H]21`, the GI50 is 348 nM and the TGI was determined as 1.39 µM.

Take `Cc1[nH]c(/C=C2\C(=O)Nc3ccccc32)c(C)c1CCC(=O)O`: the GI50 is 25600 nM and the TGI amounted to 70 µM.

Regarding `O=C(Nc1ccc(-n2ccc3c(NC(=O)c4ccccc4)nccc32)cc1)Nc1ccc(Cl)c(Cl)c1`, the GI50 is 1410 nM and the TGI came out at 2.96 µM.

As to `COc1cc(/C=C/C(=O)c2cc(OC)c(OC)c(OC)c2)ccc1OCc1ccc(F)cc1`, the GI50 was 2840 nM and the TGI is over 100 µM.

Regarding `COCC1(CO)C(=O)C2CCN1CC2` (centres undefined), the GI50 is 18400 nM and the TGI turned out to be 40.3 µM.

On to `COc1cc(OC)c(/C=C/c2c3ccccc3cc[n+]2C)c(OC)c1`, for which the GI50 was 266 nM and the TGI was 2.66 µM.

In the case of `O=C1NC(=O)/C(=C\c2ccccc2)C2=C1CCCC2`, the GI50 was 10100 nM and the TGI amounted to 30.2 µM.

Take `O=C(CSc1nnc(-c2ccc(Cl)cc2)n1-c1ccccc1)Nc1cccc(F)c1`: the GI50 was 4310 nM and the TGI was over 100 µM.

Consider `O=C1NC(=NCCc2cccc(Cl)c2)S/C1=C\c1ccc2ncccc2c1`, for which the GI50 is over 25000 nM and the TGI was over 25 µM.

`O=C(c1ccc(/C=C/c2n[nH]c3ccccc23)cc1)N1CCNCC1`: the GI50 was 2450 nM and 9150 nM; the TGI is > 10 µM and 22.5 µM.

For the molecule `CCCOc1ccc2sc(NC(=O)OC)nc2c1`, the GI50 was 1190 nM and the TGI is over 100 µM.

`N=C(N)c1ccc2nc(-c3cc(CC(=O)N[C@@H](CC(=O)O)C(=O)O)cc(-c4cc(S(N)(=O)=O)ccc4O)c3O)[nH]c2c1`: the GI50 is over 100000 nM and the TGI is over 100 µM.

As to `C[C@H]1[C@H](C)CC[C@]2(C(=O)Nc3ccc4ncccc4c3)CC[C@]3(C)C(=CC[C@@H]4[C@@]5(C)CCCNC(C)(C)[C@@H]5CC[C@]43C)[C@H]12`, the GI50 is 1740 nM and the TGI was 3.45 µM.

As for `O=C(CSC1CCc2ccccc21)N/N=C/c1ccccc1O` (centres undefined), the GI50 was 2730 nM and the TGI was determined as 13.9 µM.

Take `NC(=O)OCCn1cc(-c2nc(-c3c[nH]c4ncccc34)cs2)c2ccccc21`: the GI50 was 1330 nM and the TGI stood at 3.8 µM.
